Results as given in patent US20210261621A1, “Preparation of Dilipid Polymixins and Use Thereof as Antimicrobial Adjuvants” (priority 2018, published 2021).
Where two headings read alike, the source gives them in different places. Positions of bridges follow the written chain, without caps; N, C: chain ends. Non-standard residues stand in square brackets, D forms with d. Residues, ends and D or L forms follow the SMILES beside them. *: point of attachment. Benzoyl(4-Ph) = O=C(c1ccc(-c2ccccc2)cc1)*; Dab = NCC[C@H](N)C(=O)O

Key:
P. aeruginosa PAO1 = test system: P. aeruginosa PAO1; set-up: MICDrug / MICDrug in combo / MIC of adjuvant in combo: unit not given beside the values
pig erythrocytes = test: Hemolytic assay; conditions: pig erythrocytes, 1 h at 37° C.
Method: The ability of the compounds to lyse eukaryotic red blood cells was measured by the amount of hemoglobin released upon incubation with pig erythrocytes, following a published protocol [30]. Briefly, fresh pig blood (generously provided by Dr. Richard Hodges, Director of Animal Care and Veterinary Services of the University of Manitoba) drawn from a pig's antecubital vein was centrifuged at 1000 g for 5 min at 4° C., washed with phosphate-buffered saline (PBS) three times, and re-suspended in the same buffer, consecutively. Compounds at study were 2-fold serially diluted in PBS on a 96-well plate and mixed with equal volumes of erythrocyte solution. Post 1 h incubation at 37° C., the intact cells were pelleted by centrifugation at 1000 g for 5 min at 4° C. Resulting supernatant was then transferred to a new 96-well plate. The hemoglobin released was then measured via an EMax Plus microplate reader (Molecular Devices, USA) at 570 nm wavelength. Erythrocytes in PBS with or without 0.1% Triton X-100 were used as positive or negative control, respectively.

[1] = combination with Chloramphenicol

SMILES: CC(C)C[C@@H]1NC(=O)[C@@H](Cc2ccccc2)NC(=O)[C@H](CCN)NC(=O)[C@@H](NC(=O)[C@H](CCN)NC(=O)[C@@H](NC(=O)[C@H](CCNC(=O)c2ccc(-c3ccccc3)cc2)NC(=O)c2ccc(-c3ccccc3)cc2)[C@@H](C)O)CCNC(=O)[C@H]([C@@H](C)O)NC(=O)[C@H](CCN)NC(=O)[C@H](CCN)NC1=O [Compound 5, Dibiphenyl-4-Carboxylic Acid (Di-Biphenyl) Polymyxin] ({Benzoyl(4-Ph)}-[Dab](Benzoyl(4-Ph))T[Dab][Dab][Dab][dF]L[Dab][Dab]T; lactam 4-C)
- MIC of adjuvant alone (MIC1, MIC2, MIC3, MIC4, MIC5, MICPMBN) (P. aeruginosa PAO1; adjuvant alone, one value per checkerboard, in µg/mL): 16
- FIC index (P. aeruginosa PAO1; combination with Aztreonam): 0.62
- Interpretation (P. aeruginosa PAO1; combination with Aztreonam): Additive (An FIC index of ≤0.5, 0.5<x≤4, or >4 denotes for synergistic, additive or antagonistic interaction, respectively)
- FIC index (P. aeruginosa PAO1; combination with Ceftazidime): 0.62
- Interpretation (P. aeruginosa PAO1; combination with Ceftazidime): Additive (An FIC index of ≤0.5, 0.5<x≤4, or >4 denotes for synergistic, additive or antagonistic interaction, respectively)
- FIC index (P. aeruginosa PAO1; [1]): 0.50
- Interpretation (P. aeruginosa PAO1; [1]): Synergy (An FIC index of ≤0.5, 0.5<x≤4, or >4 denotes for synergistic, additive or antagonistic interaction, respectively)
- FIC index (P. aeruginosa PAO1; combination with Ciprofloxacin): 1.00
- Interpretation (P. aeruginosa PAO1; combination with Ciprofloxacin): Additive (An FIC index of ≤0.5, 0.5<x≤4, or >4 denotes for synergistic, additive or antagonistic interaction, respectively)
- FIC index (P. aeruginosa PAO1; combination with Clindamycin): 0.53
- Interpretation (P. aeruginosa PAO1; combination with Clindamycin): Additive (An FIC index of ≤0.5, 0.5<x≤4, or >4 denotes for synergistic, additive or antagonistic interaction, respectively)
- FIC index (P. aeruginosa PAO1; combination with Doripenem): 1.00
- Interpretation (P. aeruginosa PAO1; combination with Doripenem): Additive (An FIC index of ≤0.5, 0.5<x≤4, or >4 denotes for synergistic, additive or antagonistic interaction, respectively)
- FIC index (P. aeruginosa PAO1; combination with Doxycycline): 0.53
- Interpretation (P. aeruginosa PAO1; combination with Doxycycline): Additive (An FIC index of ≤0.5, 0.5<x≤4, or >4 denotes for synergistic, additive or antagonistic interaction, respectively)
- FIC index (P. aeruginosa PAO1; combination with Fosfomycin): 0.56
- Interpretation (P. aeruginosa PAO1; combination with Fosfomycin): Additive (An FIC index of ≤0.5, 0.5<x≤4, or >4 denotes for synergistic, additive or antagonistic interaction, respectively)
- FIC index (P. aeruginosa PAO1; combination with Gentamicin): 2.01
- Interpretation (P. aeruginosa PAO1; combination with Gentamicin): Additive (An FIC index of ≤0.5, 0.5<x≤4, or >4 denotes for synergistic, additive or antagonistic interaction, respectively)
- FIC index (P. aeruginosa PAO1; combination with Linezolid): 0.53
- Interpretation (P. aeruginosa PAO1; combination with Linezolid): Additive (An FIC index of ≤0.5, 0.5<x≤4, or >4 denotes for synergistic, additive or antagonistic interaction, respectively)
- FIC index (P. aeruginosa PAO1; combination with Meropenem): 1.00
- Interpretation (P. aeruginosa PAO1; combination with Meropenem): Additive (An FIC index of ≤0.5, 0.5<x≤4, or >4 denotes for synergistic, additive or antagonistic interaction, respectively)
- FIC index (P. aeruginosa PAO1; combination with Minocycline): 0.62
- Interpretation (P. aeruginosa PAO1; combination with Minocycline): Additive (An FIC index of ≤0.5, 0.5<x≤4, or >4 denotes for synergistic, additive or antagonistic interaction, respectively)
- FIC index (P. aeruginosa PAO1; combination with Moxifloxacin): 0.75
- Interpretation (P. aeruginosa PAO1; combination with Moxifloxacin): Additive (An FIC index of ≤0.5, 0.5<x≤4, or >4 denotes for synergistic, additive or antagonistic interaction, respectively)
- FIC index (P. aeruginosa PAO1; combination with Novobiocin): 0.50
- Interpretation (P. aeruginosa PAO1; combination with Novobiocin): Synergy (An FIC index of ≤0.5, 0.5<x≤4, or >4 denotes for synergistic, additive or antagonistic interaction, respectively)
- FIC index (P. aeruginosa PAO1; combination with Piperacillin): 1.00
- Interpretation (P. aeruginosa PAO1; combination with Piperacillin): Additive (An FIC index of ≤0.5, 0.5<x≤4, or >4 denotes for synergistic, additive or antagonistic interaction, respectively)
- Interpretation (P. aeruginosa PAO1; combination with Pleuromutilin): Additive (An FIC index of ≤0.5, 0.5<x≤4, or >4 denotes for synergistic, additive or antagonistic interaction, respectively)
- FIC index (P. aeruginosa PAO1; combination with Rifampicin): 0.31
- Interpretation (P. aeruginosa PAO1; combination with Rifampicin): Synergy (An FIC index of ≤0.5, 0.5<x≤4, or >4 denotes for synergistic, additive or antagonistic interaction, respectively)
- FIC index (P. aeruginosa PAO1; combination with Streptomycin): 1.00
- Interpretation (P. aeruginosa PAO1; combination with Streptomycin): Additive (An FIC index of ≤0.5, 0.5<x≤4, or >4 denotes for synergistic, additive or antagonistic interaction, respectively)
- FIC index (P. aeruginosa PAO1; combination with Tobramycin): 1.01
- Interpretation (P. aeruginosa PAO1; combination with Tobramycin): Additive (An FIC index of ≤0.5, 0.5<x≤4, or >4 denotes for synergistic, additive or antagonistic interaction, respectively)
- FIC index (P. aeruginosa PAO1; combination with Trimethoprim): 0.62
- Interpretation (P. aeruginosa PAO1; combination with Trimethoprim): Additive (An FIC index of ≤0.5, 0.5<x≤4, or >4 denotes for synergistic, additive or antagonistic interaction, respectively)
- FIC index (P. aeruginosa PAO1; combination with Vancomycin): 0.51
- Interpretation (P. aeruginosa PAO1; combination with Vancomycin): Additive (An FIC index of ≤0.5, 0.5<x≤4, or >4 denotes for synergistic, additive or antagonistic interaction, respectively)
- MIC of adjuvant in combo (P. aeruginosa PAO1; in combination with Aztreonam): (8)
- MIC of adjuvant in combo (P. aeruginosa PAO1; in combination with Ceftazidime): (8)
- MIC of adjuvant in combo (P. aeruginosa PAO1; in combination with Chloramphenicol): (4)
- MIC of adjuvant in combo (P. aeruginosa PAO1; in combination with Ciprofloxacin): (8)
- MIC of adjuvant in combo (P. aeruginosa PAO1; in combination with Clindamycin): (8)
- MIC of adjuvant in combo (P. aeruginosa PAO1; in combination with Doripenem): (8)
- MIC of adjuvant in combo (P. aeruginosa PAO1; in combination with Doxycycline): (8)
- MIC of adjuvant in combo (P. aeruginosa PAO1; in combination with Fosfomycin): (8)
- MIC of adjuvant in combo (P. aeruginosa PAO1; in combination with Gentamicin): (0.25)
- MIC of adjuvant in combo (P. aeruginosa PAO1; in combination with Linezolid): (8)
- MIC of adjuvant in combo (P. aeruginosa PAO1; in combination with Meropenem): (8)
- MIC of adjuvant in combo (P. aeruginosa PAO1; in combination with Minocycline): (8)
- MIC of adjuvant in combo (P. aeruginosa PAO1; in combination with Moxifloxacin): (8)
- MIC of adjuvant in combo (P. aeruginosa PAO1; in combination with Novobiocin): (4)
- MIC of adjuvant in combo (P. aeruginosa PAO1; in combination with Piperacillin): (8)
- MIC of adjuvant in combo (P. aeruginosa PAO1; in combination with Pleuromutilin): (8)
- MIC of adjuvant in combo (P. aeruginosa PAO1; in combination with Rifampicin): (4)
- MIC of adjuvant in combo (P. aeruginosa PAO1; in combination with Streptomycin): (8)
- MIC of adjuvant in combo (P. aeruginosa PAO1; in combination with Tobramycin): (0.25)
- MIC of adjuvant in combo (P. aeruginosa PAO1; in combination with Trimethoprim): (8)
- MIC of adjuvant in combo (P. aeruginosa PAO1; in combination with Vancomycin): (8)
- % Hemolysis at 512 μg/mL of polymyxin (pig erythrocytes; 512 μg/mL): 13.1 ± 1.4%
- MHC5, minimum concentration that resulted in 5% red blood cell hemolysis (pig erythrocytes): 128 µg/mL
